From patent US9808527B2, “Methods and compositions for treating HIV infections” (priority 2006, dated 2017)
“Also recorded” adds a separate entry of the source. Read-outs that look alike come from different tables or passages of the source.

Tests used:
[1] = biological target: dimerized mature HIV-1 protease (Human immunodeficiency virus type 1 group M subtype B, UniProt P12497); test: Assay for effects on dimerized mature protease (cycloheximide, FRET); format: cell-based; conditions: 1 μM added on day 5 after cycloheximide 50 μg/ml
Procedure: […] Cellular protein synthesis was monitored every 24 hours by determining levels of p24 Gag protein produced into culture medium using the fully automated chemiluminescent enzyme immunoassay system (Lumipulse F; Fujirebio Inc., Tokyo, Japan). The cells were exposed to TMC114 (1 μM) on day 5 and beyond of culture and analyzed under Fluoview FV500 confocal laser scanning microscope (OLYMPUS Optical Corp) at room temperature.
When the CFP^A/B ratios determined were greater than 1.0, it was determined that HIV-1 protease had been generated and dimerization had occurred. The production of HIV-1 was monitored every 24 hours following transfection by determining levels of p24 Gag protein produced into culture medium as described by Koh et al. Antimicrob Agents Chemother 47:3123-9 (2003).
Dissociation of already formed dimer. TMC114 was examined for its ability to dissociate the protease once dimerized within cells producing infectious HIV-1 virions. Cos-7 cells were co-transfected with wild-type pNLPR-CFP and -YFP plasmids, exposed to cycloheximide (50 μg/mL) in 24, 48, 72, and 96 hrs of culture and beyond, the cells exposed to 1 μM TMC114 on day 5 of culture and beyond, cellular protein synthesis was monitored every 24 hours by determining levels of p24 Gag protein produced into culture medium, and the values of the ratio were determined at various time points. […]

[2] = tested on: HIV-1LAI; test: MTT assay, MT-2 cells exposed to HIV-1LAI (acute HIV-1 infection assay); format: cell-based; conditions: Human immunodeficiency virus 1, MT2, 168 h
Procedure: Drug susceptibility assay. The susceptibility of HIV-1LAI, HIV-2EHO, HIV-2ROD, to various drugs and the cytotoxicity of those drugs was determined by using the MTT assay. Briefly, MT-2 cells (2×10^4/mL) were exposed to 100 TCID50s (50% tissue culture infectious doses) of HIV-1LAI, HIV-2EHO, or HIV-2ROD in the presence or absence of various concentrations of drugs in 96-well microculture plates and were incubated at 37° C. for 7 days. After 100 μL of the medium was removed from each well, 3-(4,5-dimethylthiazol-2-yl)-2,5-diphenyltetrazolium bromide (MTT) solution (10 μL, 7.5 mg/mL in phosphate-buffered saline) was added to each well in the plate, followed by incubation at 37° C. for 4 hours. […] All assays were performed in duplicate or triplicate. To determine the sensitivity of HIV-1Ba-L, HIV-1ERS104 pre, and clinical multi-drug-resistant HIV-1 isolates and different subtypes of HIV-1 isolates to drugs, phytohemagglutinin-activated peripheral blood mononuclear cells (PHA-PBMs; 10^6/mL) were exposed to 50 TCID50 (50% tissue infectious dose) of each HIV-1 isolate and cultured in the presence or absence of various concentrations of drugs in 10-fold serial dilutions in 96-well microtiter culture plates. To determine the drug susceptibility of certain laboratory HIV-1 strains (HIV-1NL4-3), MT-4 cells were used as target cells. MT-4 cells (10^5/mL) were exposed to 100 TCID50 of wild type HIV-1NL4-3 and PI-resistant HIV-1NL4-3 in the presence or absence of various concentrations of drugs and were incubated at 37° C. On day 7 of culture, the supernatant was harvested and the amount of p24 Gag protein was determined by using a fully automated chemiluminescent enzyme immunoassay system (Lumipulse F; Fujirebio Inc., Tokyo, Japan) (22). […] All assays were performed in duplicate or triplicate.

[3] = biological target: T1, CFP- and YFP-tagged HIV-1 protease subunits (Human immunodeficiency virus type 1 group M subtype B, UniProt P12497); format: cell-based; conditions: Cos-7 cells; for inhibition of protease dimerization: 1 μM
T1 construct: expressed in transfected cells; host or cells: Cos-7
Procedure: After 72 hr, cultured cells were examined in the FRET-HIV-1 assay system using confocal microscopy Fluoview FV500 confocal laser scanning microscope, and CFP^A/B were determined and plotted. […] The FRET efficiency was determined following acceptor photobleaching as previously described (Bastiaens et al., EMBO 1996; Siegel et al., Science's stke 2000; Firulli et al., Nature genetics, 2005; Szczesna et al., JBC 2003). Dequenching of the donor CFP by selective photobleaching of the acceptor YFP was performed by first obtaining YFP and CFP images at the same focal plane, followed by illuminating for 3 min the same image at wavelength of 488 nm with a laser power set at the maximum intensity to bleach YFP and re-capturing the same CFP and YFP images. The changes in the CFP and YFP fluorescence intensity in the images of selected regions were examined and quantified using Olympus FV500 Image software system. Background values were obtained from the regions where no cells were present and were subtracted from the values for the cells examined in all calculations. For each chimeric protein, the data were obtained from at least three independent experiments. FRET efficiency was determined using the formula: ET=(1−(IDA/ID))×100, where IDA and ID represent the steady-state donor fluorescence in the presence and absence of the acceptor, respectively. Digitized image data obtained from the experiment were prepared for presentation using Photoshop 6.0 (Adobe systems, Mountain View, Calif.). Ratios of intensities of ECFP fluorescence after photobleaching to ECFP fluorescence prior to photobleaching were determined. The ratios of more than 1 indicate that dimerization of CFP- and YFP-tagged protease subunits occurred and those of less than 1 indicate that dimerization was blocked by the test agent.
Generation of FRET-based HIV-1 expression assay. The basic concepts of the intermolecular fluorescence resonance energy transfer (FRET)-based HIV-1-expression assay (FRET-HIV-1 assay) are shown in FIG. 7. Within a plasmid (pHIV-1NL4-3), which encodes a full-length molecular infectious HIV-1 clone, the gene encoding a cyan fluorescent donor protein (CFP) was attached to the downstream end (C-terminus) of the gene encoding an HIV-1 protease subunit through the flexible linker added (five alanines), generating pHIV-1NL4-3/CFP (FIG. 7A). Within the other plasmid (pHIV-1NL4-3), the gene encoding a yellow fluorescent acceptor protein (YFP) was attached to the downstream end of protease-encoding gene in the same manner, generating pHIV-1NL4-3/YFP. Both CFP and YFP were designed to have phenylalanine and proline in the connection with reverse transcriptase so that the protease is cleaved from reverse transcriptase when two subunits dimerize and the dimerized protease acquires enzymatic activity. […] A focused laser beam excitation of CFP (triggered by Helium-Cadmium laser) results in rapid energy transfer to YFP, and most of the fluorescence photons are emitted by YFP (Miyawaki et al. Nature 388(6645):882-887 (1997)). If the dimerization is blocked, the average distance between CFP and YFP becomes larger and the energy transfer rate is decreased and the fraction of photons emitted by YFP is lowered.
In order to interpret the energy transfer efficiency quantitatively, an acceptor photobleaching technique was used, in which the change in CFP emission quenching is measured by comparing the value before and after selectively photobleaching YFP, which prevents problems associated with variable expression levels.

SMILES | melting point | dissociation of already dimerized protease [1] | dissociation of already dimerized protease ([1]; listed as TMC114) | IC50 ([2]; read-out: IC50 against HIV-1LAI, MT-2 cells, 100 TCID50 of HIV-1LAI, MTT assay on day 7) | IC50 ([2]; read-out: MTT assay (IC50, nM), Human CD4+ MT-2 cells, 100 TCID50 of HIV-1LAI, day 7) | inhibition of protease dimerization [3] | inhibition of protease dimerization ([3]; listed as TMC114) | concentration effectively blocking FRET / disrupting protease dimerization ([3]; in culture)
CC(C)CN(C[C@@H](O)[C@H](Cc1ccccc1)NC(=O)OC1CO[C@H]2OCCC12)S(=O)(=O)c1cccc(O)c1 (some centres unmarked) | 90 to 93 °C | – | – | – | – | – | – | –
CC(C)CN(C[C@@H](O)[C@H](Cc1ccccc1)NC(=O)O[C@H]1CO[C@H]2OCC[C@H]21)S(=O)(=O)c1ccc(N)cc1 [DRV, darunavir] | – | failed to dissociate mature protease dimer | no inhibition of FRET was detected; also recorded: did not appear to reverse the dimerization | 3 nM | ~3 nM | disrupt protease dimerization | dimerization was effectively blocked; also recorded: blocked the dimerization; also recorded: blocked protease dimerization | 0.1 µM
